# Measured values from PubChem BioAssay (NCI).
#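 Where inhibition never reached the appropriate level, the endpoint shown equals the highest concentration tested. Otherwise, values were interpolated linearly from a five-concentration, 48-hour dose response in 96-well plates. TGI is the concentration that stops growth completely.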
# What was measured:
# Assay in all cases: NCI-60 cell line screen, 48 h
# [1] = test system: 786-0 renal
# [2] = test system: A549 NSCLC
# [3] = test system: ACHN renal
# [4] = test system: CAKI-1 renal
# [5] = test system: CCRF-CEM leukemia
# [6] = test system: COLO 205 colon
# [7] = test system: DLD-1 colon
# [8] = test system: DMS 273 small cell lung
# [9] = test system: EKVX NSCLC
# [10] = test system: HCC-2998 colon
# [11] = test system: HCT-116 colon
# [12] = test system: HCT-15 colon
# [13] = test system: HL-60(TB) leukemia
# [14] = test system: HOP-18 NSCLC
# [15] = test system: HOP-62 NSCLC
# [16] = test system: HOP-92 NSCLC
# [17] = test system: HT29 colon
# [18] = test system: IGROV1 ovarian
# [19] = test system: K-562 leukemia
# [20] = test system: KM12 colon
# [21] = test system: KM20L2 colon
# [22] = test system: LOX IMVI melanoma
# [23] = test system: LXFL 529 NSCLC
# [24] = test system: M14 melanoma
# [25] = test system: M19-MEL melanoma
# [26] = test system: MALME-3M melanoma
# [27] = test system: MOLT-4 leukemia
# [28] = test system: NCI-H226 lung
# [29] = test system: NCI-H23 lung
# [30] = test system: NCI-H460 lung
# [31] = test system: NCI-H522 lung
# [32] = test system: OVCAR-3 ovarian
# [33] = test system: OVCAR-4 ovarian
# [34] = test system: OVCAR-5 ovarian
# [35] = test system: OVCAR-8 ovarian
# [36] = test system: RPMI-8226 leukemia
# [37] = test system: RXF 393 renal
# [38] = test system: SF-268 CNS
# [39] = test system: SF-295 CNS
# [40] = test system: SF-539 CNS
# [41] = test system: SK-MEL-2 melanoma
# [42] = test system: SK-MEL-28 melanoma
# [43] = test system: SK-MEL-5 melanoma
# [44] = test system: SK-OV-3 ovarian
# [45] = test system: SN12C renal
# [46] = test system: SNB-19 CNS
# [47] = test system: SNB-75 CNS
# [48] = test system: SNB-78 CNS
# [49] = test system: SR leukemia
# [50] = test system: SW-620 colon
# [51] = test system: TK-10 renal
# [52] = test system: U251 CNS
# [53] = test system: UACC-257 melanoma
# [54] = test system: UACC-62 melanoma
# [55] = test system: UO-31 renal
# [56] = test system: XF 498 CNS
# [57] = test system: A498 renal
# [58] = test system: DMS 114 small cell lung
smiles,measurement,setting,value
COc1ccc(-c2csc(=[N+]3CCCCC3)s2)cc1,TGI,[1],> 100 µM
same,TGI,[2],> 100 µM
same,TGI,[3],> 100 µM
same,TGI,[4],8.42 µM
same,TGI,[5],14.6 µM
same,TGI,[6],2.85 µM
same,TGI,[7],> 100 µM
same,TGI,[8],13.3 µM
same,TGI,[9],> 100 µM
same,TGI,[10],> 100 µM
same,TGI,[11],27.8 µM
same,TGI,[12],> 100 µM
same,TGI,[13],10.2 µM
same,TGI,[14],83 µM
same,TGI,[15],8.06 µM
same,TGI,[16],7.73 µM
same,TGI,[17],29.9 µM
same,TGI,[18],> 100 µM
same,TGI,[19],24.2 µM
same,TGI,[20],18.1 µM
same,TGI,[21],24 µM
same,TGI,[22],> 100 µM
same,TGI,[23],26.9 µM
same,TGI,[24],> 100 µM
same,TGI,[25],11.4 µM
same,TGI,[26],13.1 µM
same,TGI,[27],10.3 µM
same,TGI,[28],9.37 µM
same,TGI,[29],6.58 µM
same,TGI,[30],44.8 µM
same,TGI,[31],5.17 µM
same,TGI,[32],31.6 µM
same,TGI,[33],36.1 µM
same,TGI,[34],76.8 µM
same,TGI,[35],> 100 µM
same,TGI,[36],8.36 µM
same,TGI,[37],56.5 µM
same,TGI,[38],23.5 µM
same,TGI,[39],8.73 µM
same,TGI,[40],95.3 µM
same,TGI,[41],16.6 µM
same,TGI,[42],29.7 µM
same,TGI,[43],4.76 µM
same,TGI,[44],17.6 µM
same,TGI,[45],> 100 µM
same,TGI,[46],> 100 µM
same,TGI,[47],8.22 µM
same,TGI,[48],> 100 µM
same,TGI,[49],11.2 µM
same,TGI,[50],> 100 µM
same,TGI,[51],> 100 µM
same,TGI,[52],> 100 µM
same,TGI,[53],26.6 µM
same,TGI,[54],24.1 µM
same,TGI,[55],> 100 µM
same,TGI,[56],17.8 µM
CC(=O)Nc1ccc(C(=O)NN2C(=O)C(Cl)C2c2cc(Br)cc(Br)c2O)cc1 (configuration not stated),TGI,[1],> 100 µM
same,TGI,[57],> 100 µM
same,TGI,[2],> 100 µM
same,TGI,[3],> 100 µM
same,TGI,[4],> 100 µM
same,TGI,[5],> 100 µM
same,TGI,[6],> 100 µM
same,TGI,[7],> 100 µM
same,TGI,[58],> 100 µM
same,TGI,[8],> 100 µM
same,TGI,[9],> 100 µM
same,TGI,[10],> 100 µM
same,TGI,[11],> 100 µM
same,TGI,[12],> 100 µM
same,TGI,[13],> 100 µM
same,TGI,[14],> 100 µM
same,TGI,[15],> 100 µM
same,TGI,[16],> 100 µM
same,TGI,[18],> 100 µM
same,TGI,[19],> 100 µM
same,TGI,[20],> 100 µM
same,TGI,[21],> 100 µM
same,TGI,[22],> 100 µM
same,TGI,[23],> 100 µM
same,TGI,[24],> 100 µM
same,TGI,[25],> 100 µM
same,TGI,[26],> 100 µM
same,TGI,[27],> 100 µM
same,TGI,[28],> 100 µM
same,TGI,[29],> 100 µM
same,TGI,[30],> 100 µM
same,TGI,[31],> 100 µM
same,TGI,[32],> 100 µM
same,TGI,[33],> 100 µM
same,TGI,[34],> 100 µM
same,TGI,[35],> 100 µM
same,TGI,[36],> 100 µM
same,TGI,[38],> 100 µM
same,TGI,[40],> 100 µM
same,TGI,[41],> 100 µM
same,TGI,[43],> 100 µM
same,TGI,[44],> 100 µM
same,TGI,[45],> 100 µM
same,TGI,[46],> 100 µM
same,TGI,[47],> 100 µM
same,TGI,[49],> 100 µM
same,TGI,[50],> 100 µM
same,TGI,[52],> 100 µM
same,TGI,[53],> 100 µM
same,TGI,[54],> 100 µM
same,TGI,[55],> 100 µM
same,TGI,[56],> 100 µM
Cc1c(C)n(COCCO)c2ncnc(N)c12,TGI,[1],> 100 µM
same,TGI,[57],> 100 µM
same,TGI,[2],> 100 µM
same,TGI,[3],> 100 µM
same,TGI,[4],> 100 µM
same,TGI,[5],> 100 µM
same,TGI,[6],> 100 µM
same,TGI,[7],> 100 µM
same,TGI,[8],> 100 µM
same,TGI,[9],> 100 µM
same,TGI,[10],> 100 µM
same,TGI,[12],> 100 µM
same,TGI,[13],> 100 µM
same,TGI,[14],> 100 µM
same,TGI,[16],> 100 µM
same,TGI,[17],> 100 µM
same,TGI,[18],> 100 µM
same,TGI,[19],> 100 µM
same,TGI,[20],> 100 µM
same,TGI,[21],> 100 µM
same,TGI,[23],> 100 µM
same,TGI,[24],> 100 µM
same,TGI,[25],> 100 µM
same,TGI,[27],> 100 µM
same,TGI,[28],> 100 µM
same,TGI,[29],> 100 µM
same,TGI,[30],> 100 µM
same,TGI,[31],> 100 µM
same,TGI,[32],> 100 µM
same,TGI,[33],> 100 µM
same,TGI,[35],> 100 µM
same,TGI,[36],> 100 µM
same,TGI,[37],> 100 µM
same,TGI,[38],> 100 µM
same,TGI,[39],> 100 µM
same,TGI,[40],> 100 µM
same,TGI,[41],> 100 µM
same,TGI,[42],> 100 µM
same,TGI,[43],> 100 µM
same,TGI,[44],> 100 µM
same,TGI,[45],> 100 µM
same,TGI,[46],> 100 µM
same,TGI,[47],> 100 µM
same,TGI,[49],> 100 µM
same,TGI,[50],> 100 µM
same,TGI,[51],> 100 µM
same,TGI,[52],> 100 µM
same,TGI,[55],> 100 µM
same,TGI,[56],> 100 µM
